# Data as given in US8445207B2, “Genes based on thalidomide, valproic acid and methotrexate treatment for screening of drug inducing teratogenicity and screening method using thereof” (priority 2009, dated 2013).
# System: JEG-3 (human placental choriocarcinoma cell line)
# Experiment: Oligo microarray gene expression in drug-treated JEG-3 (Cy5 treated / Cy3 control)
# Assay type: cell-based
# Details: treated at IC30, up-regulated gene
# Experimental: Thalidomide, valproic acid, and methotrexate were treated to human placental choriocarcinoma cell line at the concentrations determined above (Inhibition concentration: the concentration that can kill approximately 30% of the total cells, that is the concentration of 70% viability, IC30). mRNA was extracted from the drug treated cell line, followed by synthesis of cDNA which was labeled with Cy5. The non-treated control was labeled with Cy3. The fluorescence labeled cDNA was hybridized with 41K (thalidomide), 44K (valproic acid, methotrexate) human whole genome oligomicroarray chips (Agilent, USA), followed by fluorescent image scanning to analyze gene expression patterns (see FIG. 4). Volcano Plot of each substance was also attached. Y axis indicates probability (generally converted by −log 10). X axis indicates differential expression, which is presented by log-ratio.
# Total RNA was separated from the treated cell by using trizol reagent (Invitrogen Life Technologies, USA) according to the manufacture's instructions, followed by purification using RNeasy mini kit (Qiagen, USA). Genomic DNA was eliminated during RNA purification using RNase-free DNase set (Qiagen, USA).
# 30 μg of the total RNA obtained above and 2 μg (1 μg/μl) of oligo (dT) primer were mixed, followed by reaction at 65° C. for 10 minutes. Annealing was performed in ice right after the reaction. Reagents were prepared as shown in Table 1 for reverse transcription of the annealed RNA.
# The total RNA separated from the control group JEG-3 cells was labeled with Cy3-dUTP (green) and the total RNA separated from the experiment group JEG-3 cells treated with thalidomide, valproic acid and methotrexate was labeled with Cy5-dUTP (red). At this time, the two samples were mixed and purified by Microcon YM-30 column (Millipore, USA).
# Hybridization and washing were performed by the manufacturer's (GenoCheck, Korea) instructions. Particularly, hybridization was performed in a 62° C. oven for 12 hours. As a DNA microarray chip, 44 k whole human genome oligo microarray (Agilent, USA) was used. After washing (2 minutes with 2×SSC/0.1% SDS, three minutes with 1×SSC, 2 minutes with 0.2×SSC), the slide was dried by centrifugation at 800 rpm for 3 minutes.
# Hybridization image on the slide was scanned with Genepix 4000B (Axon Instruments, USA). Fluorescence image of the chip on which non-hybridized genes had been washed out was obtained by using laser fluorescence scanner. Green fluorescence image indicates the activity of gene specifically expressed in the control group and red fluorescence image indicates the activity of gene specifically expressed in the experimental group. […] Scanned image was analyzed by using GenePix 4.1 software (Axon Instruments, USA) to calculate gene expression rate.
# [1] = (j) Response to oxidative stress
# [2] = (k) common gene which has no function
smiles,measurement,setting,value
"CCCC(CCC)C(=O)O [VPA, valproic acid]","Ratio of intermediate value, gene GSTM3 (NM_000849, GLUTATHION E S-TRANSFERASE M3 (BRAIN))",(h) Nervous system development,3.69
same,"Ratio of intermediate value, gene HEYL (NM_014571, HAIRY/ENHANCER-OF-SPLIT RELATED WITH YRPW MOTIF-LIKE)",(h) Nervous system development,2.13
same,"Ratio of intermediate value, gene IRS2 (NM_003749, INSULIN RECEPTOR SUBSTRATE 2)",(h) Nervous system development,2.09
same,"Ratio of intermediate value, gene KCNQ2 (NM_172109, POTASSIUM VOLTAGE-GATED CHANNEL, KQT-LIKE SUBFAMILY, MEMBER 2)",(h) Nervous system development,4.41
same,"Ratio of intermediate value, gene KDELC1 (NM_015831, ACETYLCHOLINESTERASE (YT BLOOD GROUP))",(h) Nervous system development,2.47
same,"Ratio of intermediate value, gene KIF5C (AB011103, KINESIN HEAVY CHAIN NEURON-SPECIFIC 2)",(h) Nervous system development,11.94
same,"Ratio of intermediate value, gene MAPT (NM_016835, MICROTUBULE-ASSOCIATED PROTEIN TAU)",(h) Nervous system development,3.18
same,"Ratio of intermediate value, gene MYLIP (NM_013262, MYOSIN REGULATORY LIGHT CHAIN INTERACTING PROTEIN)",(h) Nervous system development,2.88
same,"Ratio of intermediate value, gene NRXN3 (NM_004796, NEUREXIN 3)",(h) Nervous system development,2.25
same,"Ratio of intermediate value, gene PPIL6 (NM_000115, ENDOTHELIN RECEPTOR TYPE B)",(h) Nervous system development,3.13
same,"Ratio of intermediate value, gene PRPS1 (NM_002764, PHOSPHORIBOSYL PYROPHOSPHATE SYNTHETASE 1)",(h) Nervous system development,2.12
same,"Ratio of intermediate value, gene SCG10; SGC10; SCGN10 (S82024, STATHMIN-LIKE 2)",(h) Nervous system development,2.41
same,"Ratio of intermediate value, gene SDFR1 (NM_012428, NEURO-PLASTIN)",(h) Nervous system development,2.26
same,"Ratio of intermediate value, gene SELM (BX537571, FYN ONCOGENE RELATED TO SRC, FGR, YES)",(h) Nervous system development,3.34
same,"Ratio of intermediate value, gene SEMA6C (NM_030913, SEMA DOMAIN, TRANSMEMBRANE DOMAIN (TM), AND CYTOPLASMIC DOMAIN, (SEMAPHORIN) 6C)",(h) Nervous system development,2.77
same,"Ratio of intermediate value, gene TUBB2 (NM_001069, TUBULIN, BETA 2A)",(h) Nervous system development,3.11
same,"Ratio of intermediate value, gene TWSG1 (NM_020648, TWISTED GASTRULATION HOMOLOG 1 (DROSOPHILA))",(h) Nervous system development,2.56
same,"Ratio of intermediate value, gene GCLM (CR598364, GLUTAMATE-CYSTEINE LIGASE, MODIFIER SUBUNIT)",(i) Neuron apoptosis,2.61
same,"Ratio of intermediate value, gene GTF2A1 (BC028148, TUMOR NECROSIS FACTOR (TNF SUPERFAMILY, MEMBER 2))",(i) Neuron apoptosis,2.15
same,"Ratio of intermediate value, gene HPCAL4 (BC028066)",(i) Neuron apoptosis,6.07
same,"Ratio of intermediate value, gene KRAS2 (BC029545, V-HA-RAS HARVEY RAT SARCOMA VIRAL ONCOGENE HOMOLOG)",(i) Neuron apoptosis,2.62
same,"Ratio of intermediate value, gene LIG4 (NM_002312, LIGASE IV, DNA, ATP-DEPENDENT)",(i) Neuron apoptosis,2.19
same,"Ratio of intermediate value, gene DKFZp761B1514 (AK025742, UNCOUPLING PROTEIN 2 (MITOCHONDRIAL, PROTON CARRIER))",[1],2.39
same,"Ratio of intermediate value, gene DYRK3 (BC030009, SELENOPROTEIN P, PLASMA, 1)",[1],5.57
same,"Ratio of intermediate value, gene FTH1 (BC006523, SERUM/GLUCOCORTICOID REGULATED KINASE 2)",[1],2.13
same,"Ratio of intermediate value, gene GPX3 (NM_002084, GLUTATHIONE PEROXIDASE 3 (PLASMA))",[1],2.10
same,"Ratio of intermediate value, gene HMOX1 (NM_002133, HEME OXYGENASE (DECYCLING) 1)",[1],2.85
same,"Ratio of intermediate value, gene MOSPD1 (H18681, SULFIREDOXIN 1 HOMOLOG (S. CEREVISIAE))",[1],3.56
same,"Ratio of intermediate value, gene RPL4 (AK094940, GLUTAMATE-CYSTEINE LIGASE, CATALYTIC SUBUNIT)",[1],2.49
same,"Ratio of intermediate value, gene TXNIP (NM_006472, THIOREDOXIN INTERACTING PROTEIN)",[1],4.52
same,"Ratio of intermediate value, gene ATP10B (AB018258, ATPase, Class V, type 10B)",[2],2.03
same,"Ratio of intermediate value, gene BQ186674 (cDNA clone UI-E-EJ1-ajr-f-10-0-UI, Hypothetical gene supported by AF086204)",[2],2.79
same,"Ratio of intermediate value, gene BX111592 (Transcribed locus, moderately similar to XP_066443.6 PREDICTED: similar to paraneoplastic antigen like 6A)",[2],1.50
same,"Ratio of intermediate value, gene CGA (NM_000735, Glycoprotein hormones, alpha polypeptide)",[2],2.14
same,"Ratio of intermediate value, gene COBLL1 (BX649112, COBL-like 1)",[2],1.52
same,"Ratio of intermediate value, gene CYP19A1 (AK023571, Cytochrome P450, family 19, subfamily A, polypeptide 1)",[2],1.78
same,"Ratio of intermediate value, gene FLJ11017 (AK001879, Hypothetical protein FLJ11017)",[2],1.87
same,"Ratio of intermediate value, gene GLCCI1 (AK126731, Glucocorticoid induced transcript 1)",[2],2.27
same,"Ratio of intermediate value, gene KIAA0310 (AB002308, KIAA0310)",[2],1.59
same,"Ratio of intermediate value, gene MGC27016 (AK125877, Hypothetical protein MGC27016)",[2],2.62
same,"Ratio of intermediate value, gene NCOA3 (NM_181659, Nuclear receptor coactivator 3)",[2],1.62
same,"Ratio of intermediate value, gene RGS2 (BC042755, Regulator of G-protein signalling 2, 24 kDa)",[2],3.04
same,"Ratio of intermediate value, gene SIAT7A (BC063830, ST6 (alpha-N-acetyl-neuraminyl-2,3-beta-galactosyl-1,3)-N-acetylgalactosaminide alpha-2,6-sialyltransferase 1)",[2],1.69
same,"Ratio of intermediate value, gene SIAT8D (NM_005668, ST8 alpha-N-acetyl-neuraminide alpha-2,8-sialyltransferase 4)",[2],1.79
same,"Ratio of intermediate value, gene SLC7A8 (Y18483, Solute carrier family 7 (cationic amino acid transporter, y+ system), member 8)",[2],2.48
same,"Ratio of intermediate value, gene SLC40A1 (AK023574, Solute carrier family 40 (iron-regulated transporter), member 1)",[2],1.70
same,"Ratio of intermediate value, gene TFCP2L4 (BC036890, Grainyhead-like 3 (Drosophila))",[2],3.12
same,"Ratio of intermediate value, gene TTF2 (AB209845, Transcription termination factor, RNA polymerase II)",[2],1.81
same,"Ratio of intermediate value, gene TUBB3 (AK122757, Tubulin, beta 3)",[2],1.70
same,"Ratio of intermediate value, gene TncRNA (AF001893, Trophoblast-derived noncoding RNA)",[2],3.61
